Data: patent publication US9815819B2, “Complement pathway modulators and uses thereof” (priority 2012, dated 2017)

Each compound was assayed against Recombinant human factor D (Homo sapiens (Human), UniProt P00746) (assay: Human Complement Factor D Assay: Method 1). Conditions: Factor D inhibition, Method 1: 10 nM factor D, 1 hour incubation with compound at room temperature, substrate Z-Lys-thiobenzyl, fluorescence readout; read-out: IC50.
Chain of Recombinant human factor D (P00746 26-253): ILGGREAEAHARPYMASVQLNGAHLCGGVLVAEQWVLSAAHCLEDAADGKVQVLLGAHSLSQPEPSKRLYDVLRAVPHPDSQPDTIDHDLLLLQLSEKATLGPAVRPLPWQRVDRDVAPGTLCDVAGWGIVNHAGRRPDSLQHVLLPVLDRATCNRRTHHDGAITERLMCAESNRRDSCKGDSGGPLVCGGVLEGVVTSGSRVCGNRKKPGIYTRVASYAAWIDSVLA
Type: biochemical
Description: Recombinant human factor D (expressed in E. coli and purified using standard methods) at 10 nM concentration is incubated with test compound at various concentrations for 1 hour at room temperature in 0.1 M Hepes buffer, pH 7.5, containing 1 mM MgCl2, 1 M NaCl and 0.05% CHAPS. […] IC50 values are calculated from percentage of inhibition of complement factor D-activity as a function of test compound concentration.
With `NC(=O)c1nn(CC(=O)N2[C@@H]3C[C@@H]3C[C@H]2C(=O)N[C@H]2C[C@]2(F)c2ccccc2)c2cnccc12` [Example 42, 1-{2-[(1R,3S,5R)-3-((1S,2S)-2-Fluoro-2-phenyl-cyclopropylcarbamoyl)-2-aza-bicyclo[3.1.0]hex-2-yl]-2-oxo-ethyl}-1H-pyrazolo[3,4-c]pyridine-3-carboxylic acid amide] the IC50 was 3.65 µM.
Work on `CC(=O)c1nn(CC(=O)N2[C@@H]3C[C@@H]3C[C@H]2C(=O)N[C@@H]2C[C@H]2c2ccccc2F)c2cc(C(=O)O)ccc12` [Example 87, 3-Acetyl-1-(2-{(1R,3S,5R)-3-[(1R,2S)-2-(2-fluoro-phenyl)-cyclopropylcarbamoyl]-2-aza-bicyclo[3.1.0]hex-2-yl}-2-oxo-ethyl)-1H-indazole-6-carboxylic acid] yielded an IC50 of 0.046 µM.
`NC(=O)c1nn(CC(=O)N2[C@@H]3C[C@@H]3C[C@H]2C(=O)N[C@@H]2C[C@@]2(F)c2ccccc2)c2cnccc12` [Example 43, 1-{2-[(1R,3S,5R)-3-((1R,2R)-2-Fluoro-2-phenyl-cyclopropylcarbamoyl)-2-aza-bicyclo[3.1.0]hex-2-yl]-2-oxo-ethyl}-1H-pyrazolo[3,4-c]pyridine-3-carboxylic acid amide] was tested, and the IC50 was 0.214 µM.
Work on `NC(=O)c1nn(CC(=O)N2[C@@H]3C[C@@H]3C[C@H]2C(=O)N[C@@H]2C[C@@]2(F)c2ccccc2)c2cc(F)c(F)cc12` [Example 25, 5,6-Difluoro-1-{2-[(1R,3S,5R)-3-((1R,2R)-2-fluoro-2-phenyl-cyclopropylcarbamoyl)-2-aza-bicyclo[3.1.0]hex-2-yl]-2-oxo-ethyl}-1H-indazole-3-carboxylic acid amide] yielded an IC50 of 0.11 µM.
Compound `NC(=O)c1nn(CC(=O)N2C[C@H](F)C[C@H]2C(=O)N[C@@H]2C[C@H]2c2ccccc2)c2ncccc12` [Example 17, 1-{2-[(2S,4R)-4-Fluoro-2-((1R,2S)-2-phenyl-cyclopropylcarbamoyl)-pyrrolidin-1-yl]-2-oxo-ethyl}-1H-pyrazolo[3,4-b]pyridine-3-carboxylic acid amide] has an IC50 of 0.117 µM.
Compound `CC(=O)c1nn(CC(=O)N2[C@@H]3C[C@@H]3C[C@H]2C(=O)N[C@H]2C[C@@H]2c2ccccc2)c2ccccc12` [Example 1, (1R,3S,5R)-2-[2-(3-Acetyl-indazol-1-yl)-acetyl]-2-aza-bicyclo[3.1.0]hexane-3-carboxylic acid((1S,2R)-2-phenyl-cyclopropyl)-amide] has an IC50 of 0.386 µM.
For `NC(=O)c1nn(CC(=O)N2C[C@H](F)C[C@H]2C(=O)N[C@@H]2C[C@H]2c2ccccc2)c2ccccc12` [Example 18, 1-{2-[(2S,4R)-4-Fluoro-2-((1R,2S)-2-phenyl-cyclopropylcarbamoyl)-pyrrolidin-1-yl]-2-oxo-ethyl}-1H-indazole-3-carboxylic acid amide], the IC50 was 0.044 µM.
With `NC(=O)c1nn(CC(=O)N2[C@@H]3C[C@@H]3C[C@H]2C(=O)NC2CC2c2ccc(F)cc2F)c2ccccc12` (single isomer, unassigned) [Example 77] the IC50 was 0.64 µM.
In the case of `CC(=O)c1nn(CC(=O)N2[C@@H]3C[C@@H]3C[C@H]2C(=O)N[C@H]2C[C@@H]2c2ccccc2)c2cnccc12` [Example 4, (1R,3S,5R)-2-[2-(3-Acetyl-pyrazolo[3,4-c]pyridin-1-yl)-acetyl]-2-aza-bicyclo[3.1.0] hexane-3-carboxylic acid ((1S,2R)-2-phenyl-cyclopropyl)-amide], the IC50 is reported as 0.702 µM.
`CC(=O)c1nn(CC(=O)N2[C@@H]3C[C@@H]3C[C@H]2C(=O)NC2CC(c3ccccc3F)C2)c2ncccc12` (stereo partly drawn) [Example 36, (1R,3S,5R)-2-[2-(3-Acetyl-pyrazolo[3,4-b]pyridin-1-yl)-acetyl]-2-aza-bicyclo[3.1.0] hexane-3-carboxylic acid [3-(2-fluoro-phenyl)-cyclobutyl]-amide] showed an IC50 of 0.466 µM.
`NC(=O)c1nn(CC(=O)N2[C@H](C(=O)N[C@@H]3C[C@H]3c3ccccc3Cl)C[C@@]3(CO)C[C@@H]23)c2ccccc12` [Example 30, 1-(2-{(1R,3S,5S)-3-[(1R,2S)-2-(2-Chloro-phenyl)-cyclopropylcarbamoyl]-5-hydroxymethyl-2-aza-bicyclo[3.1.0]hex-2-yl}-2-oxo-ethyl)-1H-indazole-3-carboxylic acid amide] was tested, and the IC50 was 0.022 µM.
`NC(=O)c1nn(CC(=O)N2[C@@H]3C[C@@H]3C[C@H]2C(=O)N[C@@H]2C[C@H]2c2ccccc2)c2ccncc12` [Example 14, 1-{2-Oxo-2-[(1R,3S,5R)-3-((1R,2S)-2-phenyl-cyclopropylcarbamoyl)-2-aza-bicyclo[3.1.0]hex-2-yl]-ethyl}-1H-pyrazolo[4,3-c]pyridine-3-carboxylic acid amide] gave an IC50 of 0.118 µM.
`NC(=O)c1nn(CC(=O)N2[C@@H]3C[C@@H]3C[C@H]2C(=O)NC2CC2c2ccc(F)cc2F)c2ccccc12` (single isomer, unassigned) [Example 74] was tested, and the IC50 was 3.76 µM.
`CC(=O)c1nn(CC(=O)N2[C@H](C(=O)N[C@@H]3C[C@H]3c3ccccc3)C[C@@]3(CO)C[C@@H]23)c2ncccc12` [Example 28, (1R,3S,5S)-2-[2-(3-Acetyl-pyrazolo[3,4-b]pyridin-1-yl)-acetyl]-5-hydroxymethyl-2-aza-bicyclo[3.1.0]hexane-3-carboxylic acid((1R,2S)-2-phenyl-cyclopropyl)-amide] showed an IC50 of 0.172 µM.
`NC(=O)c1nn(CC(=O)N2[C@@H]3C[C@@H]3C[C@H]2C(=O)NC2CC2(F)c2ccccc2F)c2ccccc12` (single isomer, unassigned) [Example 50] showed an IC50 of 3.88 µM.
With `CC(=O)c1nn(CC(=O)N2[C@@H]3C[C@@H]3C[C@H]2C(=O)NC2CC2c2ccc(C)c(C)c2)c2cnccc12` (stereo partly drawn) [Example 34, (1R,3S,5R)-2-[2-(3-Acetyl-pyrazolo[3,4-c]pyridin-1-yl)-acetyl]-2-aza-bicyclo[3.1.0] hexane-3-carboxylic acid [2-(3,4-dimethyl-phenyl)-cyclopropyl]-amide] the IC50 was 0.112 µM.
With `CC(=O)c1nn(CC(=O)N2[C@@H]3C[C@@H]3C[C@H]2C(=O)N[C@@H]2C[C@H]2c2ccccc2)c2ccncc12` [Example 3, (1R,3S,5R)-2-[2-(3-Acetyl-pyrazolo[4,3-c]pyridin-1-yl)-acetyl]-2-aza-bicyclo[3.1.0] hexane-3-carboxylic acid ((1R,2S)-2-phenyl-cyclopropyl)-amide] the IC50 was 0.147 µM.
For `Cc1cc2c(C(N)=O)nn(CC(=O)N3[C@@H]4C[C@@H]4C[C@H]3C(=O)N[C@@H]3C[C@H]3c3ccccc3F)c2cn1` [Example 70, 1-(2-{(1R,3S,5R)-3-[(1R,2S)-2-(2-Fluoro-phenyl)-cyclopropylcarbamoyl]-2-aza-bicyclo[3.1.0]hex-2-yl}-2-oxo-ethyl)-5-methyl-1H-pyrazolo[3,4-c]pyridine-3-carboxylic acid amide], the IC50 was 0.125 µM.
`CC(=O)c1nn(CC(=O)N2[C@@H]3C[C@@H]3C[C@H]2C(=O)NC2CCC(c3ccccc3)CC2)c2cnccc12` (stereo partly drawn) [Example 37, (1R,3S,5R)-2-[2-(3-Acetyl-pyrazolo[3,4-c]pyridin-1-yl)-acetyl]-2-aza-bicyclo[3.1.0] hexane-3-carboxylic acid (4-phenyl-cyclohexyl)-amide] was tested, and the IC50 was 1.05 µM.
`CC(=O)c1nn(CC(=O)N2[C@@H]3C[C@@H]3C[C@H]2C(=O)N[C@]2(C)C[C@H]2c2ccccc2)c2cnccc12` [Example 22, (1R,3S,5R)-2-[2-(3-Acetyl-pyrazolo[3,4-c]pyridin-1-yl)-acetyl]-2-aza-bicyclo[3.1.0] hexane-3-carboxylic acid ((1R,2S)-1-methyl-2-phenyl-cyclopropyl)-amide] showed an IC50 of 0.87 µM.
In the case of `CC(=O)c1nn(CC(=O)N2[C@@H]3C[C@@H]3C[C@H]2C(=O)N[C@@H]2C[C@@]2(F)c2ccccc2)c2cnccc12` [Example 46, (1R,3S,5R)-2-[2-(3-Acetyl-pyrazolo[3,4-c]pyridin-1-yl)-acetyl]-2-aza-bicyclo[3.1.0] hexane-3-carboxylic acid ((1R,2R)-2-fluoro-2-phenyl-cyclopropyl)-amide], the IC50 is reported as 0.032 µM.
Compound `CC(=O)c1nn(CC(=O)N2[C@@H]3C[C@@H]3C[C@H]2C(=O)N[C@H]2C[C@]2(F)c2ccccc2)c2cnccc12` [Example 47, (1R,3S,5R)-2-[2-(3-Acetyl-pyrazolo[3,4-c]pyridin-1-yl)-acetyl]-2-aza-bicyclo[3.1.0] hexane-3-carboxylic acid ((1S,2S)-2-fluoro-2-phenyl-cyclopropyl)-amide] has an IC50 of 0.991 µM.
`NC(=O)c1nn(CC(=O)N2[C@@H]3C[C@@H]3C[C@H]2C(=O)N[C@@H]2C[C@@]2(F)c2ccccc2)c2ccccc12` [Example 39, 1-{2-[(1R,3S,5R)-3-((1R,2R)-2-fluoro-2-phenyl-cyclopropylcarbamoyl)-2-aza-bicyclo[3.1.0]hex-2-yl]-2-oxo-ethyl}-1H-indazole-3-carboxylic acid amide] was tested, and the IC50 was 0.048 µM.
For `CCc1cc2c(C(N)=O)nn(CC(=O)N3[C@@H]4C[C@@H]4C[C@H]3C(=O)N[C@@H]3C[C@H]3c3ccccc3)c2cn1` [Example 19, 5-Ethyl-1-{2-oxo-2-[(1R,3S,5R)-3-((1R,2S)-2-phenyl-cyclopropylcarbamoyl)-2-aza-bicyclo[3.1.0]hex-2-yl]-ethyl}-1H-pyrazolo[3,4-c]pyridine-3-carboxylic acid amide], the IC50 was 0.031 µM.
Work on `NC(=O)c1nn(CC(=O)N2[C@@H]3C[C@@H]3C[C@H]2C(=O)N[C@@H]2C[C@@]2(F)c2ccccc2)c2ccc(F)cc12` [Example 26, 5-Fluoro-1-{2-[(1R,3S,5R)-3-((1R,2R)-2-fluoro-2-phenyl-cyclopropylcarbamoyl)-2-aza-bicyclo[3.1.0]hex-2-yl]-2-oxo-ethyl}-1H-indazole-3-carboxylic acid amide] yielded an IC50 of 0.06 µM.
With `NC(=O)c1nn(CC(=O)N2[C@@H]3C[C@@H]3C[C@H]2C(=O)NC2CC2c2ccc(F)cc2F)c2ccccc12` (single isomer, unassigned) [Example 75] the IC50 was 7.76 µM.
For `CC(=O)c1nn(CC(=O)N2[C@@H]3C[C@@H]3C[C@H]2C(=O)N[C@@H]2C[C@H]2c2cccc(Cl)c2)c2ncccc12` [Example 54, (1R,3S,5R)-2-[2-(3-Acetyl-pyrazolo[3,4-b]pyridin-1-yl)-acetyl]-2-aza-bicyclo[3.1.0]hexane-3-carboxylic acid[(1R,2S)-2-(3-chloro-phenyl)-cyclopropyl]-amide], the IC50 was 0.225 µM.

Same assay, conditions: IC50 (μM), Factor D inhibition, Method 1: 10 nM factor D, 1 hour incubation with compound at room temperature, substrate Z-Lys-thiobenzyl, fluorescence readout
Work on `NC(=O)c1nn(CC(=O)N2[C@@H]3C[C@@H]3C[C@H]2C(=O)NC2CCCC(c3ccccc3)C2)c2ccccc12` (single isomer, unassigned) [Example 78] yielded an IC50 of 2 µM.
